Measured values as given in ChEMBL document CHEMBL1201862, “PubChem BioAssay data set” (2004).
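Briefly, cells in 96-well plates were exposed to five compound concentrations for 48 h, and endpoints were estimated by linear interpolation. At the GI50, growth is halved.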 The source made the active and inactive calls. Cut-off read from the data, not from the text of the source: active = GI50 up to about 1.1 µM and inactive = higher.

Experiments:
Experiment in all cases: NCI anticancer screen, dose series, 48 h
NCI-H522 = test system: NCI-H522
HCT-116 = test system: HCT-116
TK-10 = test system: TK-10
SK-MEL-2 = test system: SK-MEL-2
MDA-N = test system: MDA-N
KM12 = test system: KM12
EKVX = test system: EKVX
K562 = test system: K562
UACC-257 = test system: UACC-257
SF-295 = test system: SF-295
SR = test system: SR
T47D = test system: T47D
ACHN = test system: ACHN
HOP-62 = test system: HOP-62
HL-60 = test system: HL-60
SNB-19 = test system: SNB-19
MOLT-4 = test system: MOLT-4
UACC-62 = test system: UACC-62
Malme-3M = test system: Malme-3M
SN12C = test system: SN12C

SMILES | GI50 (NCI-H522) | GI50 (HCT-116) | GI50 (TK-10) | GI50 (SK-MEL-2) | GI50 (MDA-N) | GI50 (KM12) | GI50 (EKVX) | GI50 (K562) | GI50 (UACC-257) | GI50 (SF-295) | GI50 (SR) | GI50 (T47D) | GI50 (ACHN) | GI50 (HOP-62) | GI50 (HL-60) | GI50 (SNB-19) | GI50 (MOLT-4) | GI50 (UACC-62) | GI50 (Malme-3M) | GI50 (SN12C)
CC1(C)CCCCCCCCCC(C)(CCCCCCCCCCCCO)C1=O (stereo not given) | 16.5 µM (inactive) | 17.7 µM (inactive) | 17.7 µM (inactive) | 17.1 µM (inactive) | 18.6 µM (inactive) | 17.1 µM (inactive) | 19.3 µM (inactive) | 20 µM (inactive) | 16.2 µM (inactive) | 16.2 µM (inactive) | 55.3 µM (inactive) | 16.8 µM (inactive) | 15 µM (inactive) | 22.5 µM (inactive) | 15.7 µM (inactive) | 13 µM (inactive) | 27.2 µM (inactive) | 18.3 µM (inactive) | 16.4 µM (inactive) | 17.4 µM (inactive)
Cc1ccc2c(=O)cc(-c3ccc(-c4ccccc4)s3)[nH]c2n1 | > 19.7 µM (inactive) | 25.6 µM (inactive) | > 48.3 µM (inactive) | > 100 µM (inactive) | 4.98 µM (inactive) | > 24.5 µM (inactive) | 27.2 µM (inactive) | 11.9 µM (inactive) | 8.47 µM (inactive) | > 28.8 µM (inactive) | 2.43 µM (inactive) | > 76.7 µM (inactive) | > 100 µM (inactive) | 30.6 µM (inactive) | > 23.6 µM (inactive) | 70.1 µM (inactive) | 4.18 µM (inactive) | 17 µM (inactive) | > 42.9 µM (inactive) | 58.6 µM (inactive)
CC1(C#N)CC(C)(C)C(/C=C2/CC(C)(C)C(/C=C3/OC(=N)CC3(C)C)=N2)=N1 (stereo not given) | 14.2 µM (inactive) | 28.9 µM (inactive) | 31 µM (inactive) | 38.7 µM (inactive) | 31.4 µM (inactive) | 24.2 µM (inactive) | 21.7 µM (inactive) | 22.5 µM (inactive) | 18.8 µM (inactive) | 23.7 µM (inactive) | 28.5 µM (inactive) | 22.7 µM (inactive) | 21.3 µM (inactive) | 23.8 µM (inactive) | 21.9 µM (inactive) | 32.7 µM (inactive) | 28.7 µM (inactive) | 20.7 µM (inactive) | 0.564 µM (active) | 31.9 µM (inactive)
CSc1c(C#N)c(N)nc2c(/N=N\c3ccc(Br)cc3)c(N)nn12 | 6.41 µM (inactive) | 6.34 µM (inactive) | 15 µM (inactive) | 4.48 µM (inactive) | 6.71 µM (inactive) | 9.02 µM (inactive) | 7.78 µM (inactive) | 2.75 µM (inactive) | 8.05 µM (inactive) | 8.63 µM (inactive) | 2.55 µM (inactive) | 2 µM (inactive) | 7 µM (inactive) | 11.4 µM (inactive) | 2.82 µM (inactive) | 28.4 µM (inactive) | 3.63 µM (inactive) | 7.26 µM (inactive) | 8.69 µM (inactive) | 6.65 µM (inactive)
C1=Cc2ccccc2C1.C=C(C)c1ccccc1.[N-]=[N+]=Nc1ccccc1 | 34.3 µM (inactive) | 48.3 µM (inactive) | > 100 µM (inactive) | > 100 µM (inactive) | 72.3 µM (inactive) | 50.5 µM (inactive) | 38.5 µM (inactive) | 46.9 µM (inactive) | 41 µM (inactive) | > 100 µM (inactive) | > 100 µM (inactive) | 68.5 µM (inactive) | > 100 µM (inactive) | > 100 µM (inactive) | 62.4 µM (inactive) | > 100 µM (inactive) | 96.2 µM (inactive) | 45.8 µM (inactive) | > 100 µM (inactive) | > 100 µM (inactive)
COc1ccc(/N=N/C(=N/NC(=O)c2ccc(C)cc2)c2ccc(N(CCC#N)CCC#N)cc2OC)cc1 | > 100 µM (inactive) | > 100 µM (inactive) | > 100 µM (inactive) | > 100 µM (inactive) | > 100 µM (inactive) | > 100 µM (inactive) | > 100 µM (inactive) | > 100 µM (inactive) | > 100 µM (inactive) | > 100 µM (inactive) | 36.6 µM (inactive) | > 100 µM (inactive) | > 100 µM (inactive) | > 100 µM (inactive) | < 0.01 µM (active) | > 100 µM (inactive) | > 100 µM (inactive) | > 100 µM (inactive) | > 100 µM (inactive) | > 100 µM (inactive)
CN(C)c1ccc(/C=C/c2cc[n+](C)c3ccccc23)cc1 | 1.98 µM (inactive) | 1.58 µM (inactive) | 3.71 µM (inactive) | 2.27 µM (inactive) | 2.27 µM (inactive) | 2.51 µM (inactive) | 34.7 µM (inactive) | 0.418 µM (active) | 1.2 µM (inactive) | 3.84 µM (inactive) | 0.698 µM (active) | 0.652 µM (active) | 6.43 µM (inactive) | 4.63 µM (inactive) | 0.748 µM (active) | 2.34 µM (inactive) | 3.4 µM (inactive) | 3.13 µM (inactive) | 4.51 µM (inactive) | 3.44 µM (inactive)
COC1=CC(=O)c2c(O)c3c(c(O)c2C1=O)CC(C)(O)OC3 (stereo not given) [FUSARUBIN] | 2.25 µM (inactive) | 2.96 µM (inactive) | 10.6 µM (inactive) | 1.95 µM (inactive) | 1.89 µM (inactive) | 3.1 µM (inactive) | 5.32 µM (inactive) | 3.44 µM (inactive) | 2.02 µM (inactive) | 3.12 µM (inactive) | 5.36 µM (inactive) | 2.05 µM (inactive) | 2.95 µM (inactive) | 3.19 µM (inactive) | 2.42 µM (inactive) | 3.27 µM (inactive) | 2.64 µM (inactive) | 2.07 µM (inactive) | 0.653 µM (active) | 3.61 µM (inactive)
O=CN1CCN(CC(O)CN2CCCCC2)CC1 (stereo not given) | > 100 µM (inactive) | > 100 µM (inactive) | > 100 µM (inactive) | > 100 µM (inactive) | > 100 µM (inactive) | > 100 µM (inactive) | > 100 µM (inactive) | > 100 µM (inactive) | > 100 µM (inactive) | > 100 µM (inactive) | > 100 µM (inactive) | > 100 µM (inactive) | > 100 µM (inactive) | > 100 µM (inactive) | > 100 µM (inactive) | > 100 µM (inactive) | > 100 µM (inactive) | > 100 µM (inactive) | > 100 µM (inactive) | > 100 µM (inactive)
